# Measured values: patent US9884842B2, “Combretastatin analogs” (The Board of Trustees of the University of Arkansas, priority 2013, dated 2018)
# How the values were obtained:
# HS 578T = test: NCI growth inhibition and cytotoxicity screen, Breast Cancer panel; settings: Homo sapiens; for CC50: read-out: LC50
# SK-MEL-5 = test: NCI growth inhibition and cytotoxicity screen, Melanoma panel; settings: Homo sapiens; for GI50: SK-MEL-5; for CC50: SK-MEL-5, read-out: LC50
# MCF7 = test: NCI growth inhibition and cytotoxicity screen, Breast Cancer panel; settings: Homo sapiens; for GI50: MCF7; for CC50: MCF7, read-out: LC50
# A498 = test: NCI growth inhibition and cytotoxicity screen, Renal Cancer panel; settings: Homo sapiens; for GI50: A498; for CC50: A498, read-out: LC50
# SK-MEL-28 = test: NCI growth inhibition and cytotoxicity screen, Melanoma panel; settings: Homo sapiens; for GI50: SK-MEL-28; for CC50: SK-MEL-28, read-out: LC50
# RXF 393 = test: NCI growth inhibition and cytotoxicity screen, Renal Cancer panel; settings: Homo sapiens; for GI50: RXF 393; for CC50: RXF 393, read-out: LC50
# COLO 205 = test: NCI growth inhibition and cytotoxicity screen, Colon Cancer panel; settings: Homo sapiens; for GI50: COLO 205; for CC50: COLO 205, read-out: LC50
# OVCAR-5 = test: NCI growth inhibition and cytotoxicity screen, Ovarian Cancer panel; settings: Homo sapiens; for GI50: OVCAR-5; for CC50: OVCAR-5, read-out: LC50
# RPMI-8226 = test: NCI growth inhibition and cytotoxicity screen, Leukemia panel; settings: Homo sapiens; for GI50: RPMI-8226; for CC50: RPMI-8226, read-out: LC50
# MDA-MB-468 = test: cells; settings: Homo sapiens; for GI50: MDA-MB-468; for CC50: MDA-MB-468, read-out: LC50
# MDA-MB-231/ATCC = test: NCI growth inhibition and cytotoxicity screen, Breast Cancer panel; settings: Homo sapiens; for GI50: MDA-MB-231; for CC50: MDA-MB-231, read-out: LC50
# HL-60(TB) = test: cells; settings: Homo sapiens; for GI50: HL-60; for CC50: HL-60, read-out: LC50
# OVCAR-4 = test: NCI growth inhibition and cytotoxicity screen, Ovarian Cancer panel; settings: Homo sapiens; for GI50: OVCAR-4; for CC50: OVCAR-4, read-out: LC50
# ACHN = test: NCI growth inhibition and cytotoxicity screen, Renal Cancer panel; settings: Homo sapiens; for CC50: read-out: LC50
# SNB-75 = test: NCI growth inhibition and cytotoxicity screen, CNS Cancer panel; settings: Homo sapiens; for GI50: SNB-75; for CC50: SNB-75, read-out: LC50
# HCC-2998 = test: NCI growth inhibition and cytotoxicity screen, Colon Cancer panel; settings: Homo sapiens; for GI50: HCC 2998; for CC50: HCC 2998, read-out: LC50
# OVCAR-8 = test: NCI growth inhibition and cytotoxicity screen, Ovarian Cancer panel; settings: Homo sapiens; for GI50: OVCAR-8; for CC50: OVCAR-8, read-out: LC50
# A549/ATCC = test: NCI growth inhibition and cytotoxicity screen, Lung Cancer panel; settings: Homo sapiens; for GI50: A549; for CC50: A549, read-out: LC50
# OVCAR-3 = test: cells; settings: Homo sapiens; for GI50: OVCAR-3; for CC50: OVCAR-3, read-out: LC50
# NCI-H522 = test: NCI growth inhibition and cytotoxicity screen, Lung Cancer panel; type: cell-based; settings: Homo sapiens, Table 2, cell line NCI-H522 (Lung Cancer); for CC50: read-out: LC50 (the source's name)
# DU-145 = test: NCI growth inhibition and cytotoxicity screen, Prostate Cancer panel; settings: Homo sapiens; for GI50: DU-145; for CC50: DU-145, read-out: LC50
# HOP-62 = test: NCI growth inhibition and cytotoxicity screen, Lung Cancer panel; settings: Homo sapiens; for GI50: HOP-62; for CC50: HOP-62, read-out: LC50
# TK-10 = test: NCI growth inhibition and cytotoxicity screen, Renal Cancer panel; settings: Homo sapiens; for GI50: TK-10; for CC50: TK-10, read-out: LC50
# UACC-62 = test: NCI growth inhibition and cytotoxicity screen, Melanoma panel; settings: Homo sapiens; for GI50: UACC-62; for CC50: UACC-62, read-out: LC50
# T-47D = test: NCI growth inhibition and cytotoxicity screen, Breast Cancer panel; settings: Homo sapiens, T47D; for CC50: read-out: LC50
# MDA-MB-435 = test: NCI growth inhibition and cytotoxicity screen, Melanoma panel; settings: Homo sapiens; for GI50: MDA-MB-435; for CC50: MDA-MB-435, read-out: LC50
# SK-MEL-2 = test: as above; settings: Homo sapiens; for GI50: SK-MEL-2; for CC50: SK-MEL-2, read-out: LC50
# SF-539 = test: NCI growth inhibition and cytotoxicity screen, CNS Cancer panel; settings: Homo sapiens; for GI50: SF-539; for CC50: SF-539, read-out: LC50
# HOP-92 = test: NCI growth inhibition and cytotoxicity screen, Lung Cancer panel; settings: Homo sapiens; for GI50: HOP-92; for CC50: HOP-92, read-out: LC50
# PC-3 = test: NCI growth inhibition and cytotoxicity screen, Prostate Cancer panel; settings: Homo sapiens; for GI50: PC-3; for CC50: PC-3, read-out: LC50
# MOLT-4 = test: NCI growth inhibition and cytotoxicity screen, Leukemia panel; settings: Homo sapiens; for GI50: MOLT-4; for CC50: MOLT-4, read-out: LC50
compound,measurement,setting,value
"COc1cc(OC)cc(/C(C#N)=C/c2ccc3ccccc3n2)c1 [PNR-4-84, (Z)-2-(3,5-dimethoxyphenyl)-3-(quinolin-2-yl)acrylonitrile]",GI50,HS 578T,700 nM
same,CC50,HS 578T,> 100000 nM
same,GI50,SK-MEL-5,406 nM
same,CC50,SK-MEL-5,> 100000 nM
same,GI50,MCF7,537 nM
same,CC50,MCF7,> 100000 nM
same,GI50,A498,275 nM
same,CC50,A498,> 100000 nM
same,GI50,SK-MEL-28,896 nM
same,CC50,SK-MEL-28,> 100000 nM
same,GI50,RXF 393,334 nM
same,CC50,RXF 393,> 100000 nM
same,GI50,COLO 205,374 nM
same,CC50,COLO 205,> 100000 nM
same,GI50,OVCAR-5,716 nM
same,CC50,OVCAR-5,42800 nM
same,GI50,RPMI-8226,433 nM
same,CC50,RPMI-8226,> 100000 nM
same,GI50,MDA-MB-468,1500 nM
same,CC50,MDA-MB-468,> 100000 nM
same,GI50,MDA-MB-231/ATCC,1020 nM
same,CC50,MDA-MB-231/ATCC,> 100000 nM
same,GI50,HL-60(TB),270 nM
same,CC50,HL-60(TB),> 100000 nM
same,GI50,OVCAR-4,788 nM
same,CC50,OVCAR-4,> 100000 nM
same,GI50,ACHN,773 nM
same,CC50,ACHN,> 100000 nM
same,GI50,SNB-75,311 nM
same,CC50,SNB-75,> 100000 nM
same,GI50,HCC-2998,1420 nM
same,CC50,HCC-2998,> 100000 nM
same,GI50,OVCAR-8,659 nM
same,CC50,OVCAR-8,> 100000 nM
same,GI50,A549/ATCC,649 nM
same,CC50,A549/ATCC,> 100000 nM
same,GI50,OVCAR-3,309 nM
same,CC50,OVCAR-3,34000 nM
same,GI50,NCI-H522,94 nM
same,CC50,NCI-H522,> 100000 nM
same,GI50,DU-145,801 nM
same,CC50,DU-145,> 100000 nM
same,GI50,HOP-62,959 nM
same,CC50,HOP-62,> 100000 nM
same,GI50,TK-10,3280 nM
same,CC50,TK-10,> 100000 nM
same,GI50,UACC-62,449 nM
same,CC50,UACC-62,> 100000 nM
same,GI50,T-47D,1230 nM
same,CC50,T-47D,> 100000 nM
same,GI50,MDA-MB-435,147 nM
same,CC50,MDA-MB-435,> 100000 nM
same,GI50,SK-MEL-2,522 nM
same,CC50,SK-MEL-2,> 100000 nM
same,GI50,SF-539,286 nM
same,CC50,SF-539,8030 nM
same,GI50,HOP-92,542 nM
same,CC50,HOP-92,> 100000 nM
same,GI50,PC-3,584 nM
same,CC50,PC-3,> 100000 nM
same,GI50,MOLT-4,419 nM
same,CC50,MOLT-4,> 100000 nM
"COc1cc(OC)cc(/C(C#N)=C/c2cnc3ccccc3c2)c1 [PNR-4-85, (Z)-3-(quinolin-3-yl)-2-(3,5-dimethoxyphenyl)acrylonitrile]",GI50,HS 578T,715 nM
same,CC50,HS 578T,> 100000 nM
same,GI50,SK-MEL-5,249 nM
same,CC50,SK-MEL-5,> 100000 nM
same,GI50,MCF7,333 nM
same,CC50,MCF7,> 100000 nM
same,GI50,A498,333 nM
same,CC50,A498,> 100000 nM
same,GI50,SK-MEL-28,1400 nM
same,CC50,SK-MEL-28,> 100000 nM
same,GI50,RXF 393,297 nM
same,CC50,RXF 393,> 100000 nM
same,GI50,COLO 205,398 nM
same,CC50,COLO 205,89900 nM
same,GI50,OVCAR-5,587 nM
same,CC50,OVCAR-5,> 100000 nM
same,GI50,RPMI-8226,332 nM
same,CC50,RPMI-8226,> 100000 nM
same,GI50,MDA-MB-468,217 nM
same,CC50,MDA-MB-468,> 100000 nM
same,GI50,MDA-MB-231/ATCC,1150 nM
same,CC50,MDA-MB-231/ATCC,> 100000 nM
same,GI50,HL-60(TB),234 nM
same,CC50,HL-60(TB),> 100000 nM
same,GI50,OVCAR-4,1730 nM
same,CC50,OVCAR-4,> 100000 nM
same,GI50,ACHN,1190 nM
same,CC50,ACHN,> 100000 nM
same,GI50,SNB-75,224 nM
same,CC50,SNB-75,> 100000 nM
same,GI50,HCC-2998,1450 nM
same,CC50,HCC-2998,> 100000 nM
same,GI50,OVCAR-8,584 nM
same,CC50,OVCAR-8,> 100000 nM
same,GI50,A549/ATCC,556 nM
same,CC50,A549/ATCC,> 100000 nM
same,GI50,OVCAR-3,279 nM
same,CC50,OVCAR-3,> 100000 nM
same,GI50,NCI-H522,69 nM
same,CC50,NCI-H522,> 100000 nM
same,GI50,DU-145,505 nM
same,CC50,DU-145,> 100000 nM
same,GI50,HOP-62,793 nM
same,CC50,HOP-62,> 100000 nM
same,GI50,TK-10,17700 nM
same,CC50,TK-10,> 100000 nM
same,GI50,UACC-62,357 nM
same,CC50,UACC-62,> 100000 nM
same,GI50,T-47D,628 nM
same,CC50,T-47D,> 100000 nM
same,GI50,MDA-MB-435,53 nM
same,CC50,MDA-MB-435,> 100000 nM
same,GI50,SK-MEL-2,709 nM
same,CC50,SK-MEL-2,> 100000 nM
same,GI50,SF-539,289 nM
same,CC50,SF-539,> 100000 nM
same,GI50,HOP-92,3090 nM
same,CC50,HOP-92,> 100000 nM
same,GI50,PC-3,506 nM
same,CC50,PC-3,> 100000 nM
same,GI50,MOLT-4,378 nM
same,CC50,MOLT-4,> 100000 nM
